Data: US20240002395A1, “COMPOUNDS AND THEIR USE FOR TREATING NEUROPATHIC PAIN” (The Johns Hopkins University, priority 2020, published 2024)

What was measured:
human MrgprX1 = target: T1, human MrgprX1 (Homo sapiens, UniProt Q96LB2); experiment: MrgprX1 positive allosteric modulator (PAM) calcium FLIPR assay in HEK293 cells; assay type: cell-based; details: PAM activity in presence of EC20 concentration of BAM8-22; HEK293 cells stably transfected with human MrgprX1
T1 construct: expressed in transfected cells
Protocol: HEK293 cells stably transfected with human MrgprX1 were plated onto poly-D-lysine-coated, black-walled, 96-well plates at a seeding density of 12,000 cells/well and grown for two days. On the day of the experiment, cells were incubated with Fluo-4 AM 2 μM, pluronic acid 0.04% and Trypan Red 1% in HBSS (pH 7.4, 100 μL) for 1 h at 37° C. For each different passage of cells, a BAM8-22 dose response was first conducted and the BAM8-22 EC20 determined. Test compounds were then dissolved and serially diluted in DMSO, further diluted with Trypan Red (1%)-containing HBSS (50 μL) and added to cells (0.33% DMSO concentration by volume) to first monitor for agonist activity. After 2.5 min, BAM8-22 at 4-fold EC20 (50 μL) was added to cells (0.25% DMSO concentration by volume) and the cells imaged on the FLIPR for an additional 2 minutes to monitor the test compounds for PAM activity. Finally, data were normalized to fluorescence signals obtained from 250 nM of BAM8-22 (maximum) and BAM8-22 at its EC20 concentration (minimum). EC50 of a test compound was defined as the concentration required to provoke a response halfway between the minimum and maximum response in the presence of EC20 concentration of BAM8-22.

T1 sequence (Q96LB2 whole entry): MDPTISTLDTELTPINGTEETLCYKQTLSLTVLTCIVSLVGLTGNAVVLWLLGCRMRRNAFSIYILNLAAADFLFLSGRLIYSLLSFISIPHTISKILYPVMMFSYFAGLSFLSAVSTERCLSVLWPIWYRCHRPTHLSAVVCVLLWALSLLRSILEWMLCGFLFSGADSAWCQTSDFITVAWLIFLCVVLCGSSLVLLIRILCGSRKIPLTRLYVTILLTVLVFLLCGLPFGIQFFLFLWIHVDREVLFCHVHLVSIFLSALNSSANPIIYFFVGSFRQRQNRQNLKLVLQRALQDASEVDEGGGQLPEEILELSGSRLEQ

| EC50 (human MrgprX1) [nM] | melting point [°C] | Structure (SMILES) |
| --- | --- | --- |
| 4000 | 117 | CC(C)(C)c1sc2ncnc(Oc3cccnc3OC(F)(F)F)c2c1-c1ccc(Cl)c(Cl)c1 [Compound 7h, 6-tert-butyl-5-(3,4-dichlorophenyl)-4-(2-(trifluoromethoxy)pyridin-3-yloxy)thieno[2,3-d]pyrimidine] |
| 1000 | 119 | CCOc1ccccc1Oc1ncnc2sc(C(C)(C)C)c(-c3ccc(Cl)c(Cl)c3)c12 [Compound 7r, 6-tert-butyl-5-(3,4-dichlorophenyl)-4-(2-ethoxyphenoxy)thieno[2,3-d]pyrimidine] |
| > 100000 | 186 | CC(C)(C)c1sc2ncnc(Oc3ccnnc3)c2c1-c1ccc(Cl)c(Cl)c1 [Compound 7k, 6-tert-butyl-5-(3,4-dichlorophenyl)-4-(pyridazin-4-yloxy)thieno[2,3-d]pyrimidine] |
| 1000 | 136 | CC(C)(C)c1sc2ncnc(Oc3ccccc3OCC(F)(F)F)c2c1-c1ccc(Cl)c(Cl)c1 [Compound 7s, 6-tert-butyl-5-(3,4-dichlorophenyl)-4-(2-(2,2,2-trifluoroethoxy)phenoxy)thieno[2,3-d]pyrimidine] |
| 300 | 152 | CC(C)(C)c1sc2ncnc(OC3CC4CCC3C4)c2c1-c1ccc(Cl)c(Cl)c1 (stereo not shown) [Compound 7ad, 4-(bicyclo[2.2.1]heptan-2-yloxy)-6-tert-butyl-5-(3,4-dichlorophenyl)thieno[2,3-d]pyrimidine] |
| 100 | 129 | CC(C)(C)c1sc2ncnc(Oc3ccccc3OC(F)(F)F)c2c1-c1cccc(Cl)c1 [Compound 7aq, 6-tert-butyl-5-(3-chlorophenyl)-4-(2-(trifluoromethoxy)phenoxy)thieno[2,3-d]pyrimidine] |
| 6000 | 112 | CC(C)(C)c1sc2ncnc(OC3CCCC3)c2c1-c1ccc(Cl)c(Cl)c1 [Compound 7z, 6-tert-butyl-4-(cyclopentyloxy)-5-(3,4-dichlorophenyl)thieno[2,3-d]pyrimidine] |
| 300 | 66 | CC(C)(C)c1sc2ncnc(Oc3c(Cl)cccc3OC(F)(F)F)c2c1-c1ccc(Cl)c(Cl)c1 [Compound 7c, 6-tert-butyl-4-(2-chloro-6-(trifluoromethoxy)phenoxy)-5-(3,4-dichlorophenyl)thieno[2,3-d]pyrimidine] |
| 40 | 173 | CC(C)(C)c1sc2ncnc(Oc3c(F)cccc3F)c2c1N1CCOCC1 [Compound 7bi, 4-(6-(tert-butyl)-4-(2,6-difluorophenoxy)thieno[2,3-d]pyrimidin-5-yl)morpholine] |
| 100 | 139 | CC(C)(C)c1sc2ncnc(OC3CCCCC3C(F)(F)F)c2c1-c1ccc(Cl)c(Cl)c1 (stereo not shown) [Compound 7af, 6-tert-butyl-5-(3,4-dichlorophenyl)-4-(2-(trifluoromethyl)cyclohexyloxy)thieno[2,3-d]pyrimidine] |
| > 100000 | 103 | CC(C)(C)c1sc2ncnc(Oc3ccc(OC(F)(F)F)cc3)c2c1-c1ccc(Cl)c(Cl)c1 [Compound 7e, 6-tert-butyl-5-(3,4-dichlorophenyl)-4-(4-(trifluoromethoxy)phenoxy)thieno[2,3-d]pyrimidine] |
| > 10000 | 172 | CC(C)(C)c1sc2ncnc(OC3CC3)c2c1-c1ccc(Cl)c(Cl)c1 [Compound 7x, 6-tert-butyl-4-cyclopropoxy-5-(3,4-dichlorophenyl)thieno[2,3-d]pyrimidine] |
| 50 | 146 | CC(C)(C)c1sc2ncnc(Oc3c(F)cccc3F)c2c1-c1cccc(Cl)c1 [Compound 7as, 6-tert-butyl-5-(3-chlorophenyl)-4-(2,6-difluorophenoxy)thieno[2,3-d]pyrimidine] |
| 1000 | 164 | CC(C)(C)c1sc2ncnc(Oc3cccnc3F)c2c1-c1ccc(Cl)c(Cl)c1 [Compound 7g, 6-tert-butyl-5-(3,4-dichlorophenyl)-4-(2-fluoropyridin-3-yloxy)thieno[2,3-d]pyrimidine] |
